In US20190142744A1, “NUCLEIC ACID NANOCAGES, COMPOSITIONS, AND USES THEREOF” (North Carolina State University, priority 2015, published 2019):
Positions count from the first letter of the chain named.

B1: NC-23: DNA NC variant with 23 nucleotides complementary to the sgRNA (nucleic acid)
DNA: GGGCACGGGCAGCTTGCCGGTGGAAGCTAGATGCATCTAGCAAGCGCCGCCACTGATTTCACCGCTTCAAGCTAGATGCATCTAGCAAT
modifications: DNA nanoclew made by rolling circle amplification of circularized template, further chemistry not given here; the letters are possibly those of the target site
notes: DNA NC variant with 23 nucleotides complementary to the sgRNA
B2: NC-12: DNA nanoclew encoding 12 nucleotides complementary to the 5′ end of the sgRNA (nucleic acid)
DNA: B1 DNA with G2C, G3T, C4A, A5C, C18A, G19T, G20C, T21A, G22A, G23T
modifications: Rolling circle amplification template for DNA nanoclew, further chemistry not given here; the letters are possibly those of the target site
notes: DNA nanoclew encoding 12 nucleotides complementary to the 5′ end of the sgRNA
B3: NC-0: DNA NC variant with 0 nucleotides complementary to the sgRNA (nucleic acid)
DNA: GAGAAACGAGTGCGGTCACAGCTAAGCTAGATGCATCTAGCAAGCGCCGCCACTGATTTCACCGCTTCAAGCTAGATGCATCTAGCAAT
modifications: DNA nanoclew made by rolling circle amplification of circularized template, further chemistry not given here; the letters are possibly those of the target site
notes: DNA NC variant with 0 nucleotides complementary to the sgRNA

How the values were obtained:
U2OS.EGFP cells = assay: Determination of endocytosis pathways in U2OS.EGFP cells; type: cell-based, human; details: MCD 3 mM, AMI 1 mM, flow cytometry
Experimental: U2OS.EGFP cells were seeded in 24-well plates (˜25000 cells/well) and cultured for 2 d. Then the cells were pre-incubated with several endocytosis inhibitors^[19b], such as chlorpromazine (CPZ, 10 μM) for clathrin-mediated endocytosis, nystatin (NYS, 25 μg/mL) for caveolin-mediated endocytosis, methyl-β-cyclodextrin (MCD, 3 mM) for lipid raft and amiloride (AMI, 1 mM) for macropinocytosis, for 1 h at 37° C., respectively. Afterwards, the cells were incubated with AF647-Cas9/sgRNA/NC/PEI for another 2 h in the presence of the inhibitors. Cells were then washed, trypsinized and resuspended in full serum medium, intracellular AF647 fluorescence intensities were analyzed by flow cytometry.

MCF-7 cells = assay: Determination of endocytosis pathways in MCF-7 cells; type: cell-based, human; details: CPZ 10 μM, AMI 1 mM, DOX 2 μM, 2 h
Experimental: MCF-7 cells were seeded in 6-well plates (1×10^4 cells per well) and culture for 48 h. […] Then the cells were incubated with DOX/FA-NCl/NCa at DOX concentration of 2 μM or FA-NCI/AF488-NCa of the same concentration in the presence of the inhibitors for another 2 h. After washing the cells by 4° C. PBS twice, the cells were lysed with Pierce IP lysis buffer (Thermo Scientific) and centrifuged. Fluorescence of DOX and AF488 and protein concentration in the supernatant were measured, respectively, by a microplate reader (Infinite […], Tecan).

[1] = Stability of DNA NC incubated with Cas9/sgRNA (agarose gel); type: physicochemical; details: Cas9/sgRNA 24 h
Experimental: The DNA NCs were prepared by RCA using cyclized single stranded DNA (ssDNA) templates. 5′ phosphorylated linear ssDNA templates (FIG. 21) were cyclized by CircLigase II ssDNA ligase (Epicentre) following manufacture's instructions. Unligated ssDNA chains were removed with 1 U Exo I (NEB) at 37° C. for 45 min followed by heat inactivation at 80° C. for 15 min. The cyclized ssDNA template (10 pmol) was added into 1 mL 1× isothermal amplification buffer (NEB) together with 0.5 μM primer and 200 μM dNTP and heated to 95° C. for 5 min. After hybridizing the template and primer by cooling the mixture to room temperature, Bst 2.0 DNA polymerase (0.2 U/μL) was added to initiate the RCA. The RCA was performed at 65° C. overnight and the denatured polymerase after the reaction was removed by centrifugation at 14,000×g for 2 min. […] The synthesized DNA NCs were analyzed by 0.8% agarose gel electrophoresis and Nanodrop 2000C (Thermal Scientific) was applied to measure the concentration and purity of the DNA NC. […] Zeta potential and particle size of NC were measured with a Zetasizer (Malvern). To image the NC by atomic force microscopy (AFM), the NC was dropped and dried onto a silicon wafer (Ted Pella) and analyzed on a Nanoscope AFM instrument (Veeco, Santa Barbara, Calif.) using tapping mode in ambient air.

[2] = tested on: EGFP gene in U2OS.EGFP cells; assay: EGFP gene disruption assay in U2OS.EGFP cells (fluorescence microscopy, flow cytometry); type: cell-based, human; details: NC-23, NC-12, NC-0 coated with PEI; different Cas9/sgRNA molar ratios
Experimental: The reporter cell line U2OS.EGFP with a single copy of destabilized EGFP gene integrated into the genome was a generous gift from Dr. J Keith Joung at Massachusetts General Hospital.^[6b] The cells were cultured in a 37° C. incubator under 5% CO2 and 90% humidity with full serum medium: Dulbecco's Modified Eagle's Medium supplemented with 10% (v/v) FBS, 2 mM GlutaMAX (Life Technologies), penicillin (100 U/mL) and streptomycin (100 μg/mL). U2OS.EGFP cells were seeded into 24-well plates (˜25,000 cells per well) one day before the transfection. […] Two days after the delivery, the cells were analyzed using a fluorescent microscope (IX71, Olympus). For the flow cytometry analysis, the cells were washed with ice cold PBS twice and trypsinized with 0.05% trypsin (Mediatech) at 37° C. for 1-2 min. Afterwards, the cells were washed and resuspended in full serum medium and analyzed by a BD Accuri C6 flow cytometer (BD Biosciences).

Molecule	effect of endocytosis inhibitor on uptake of Cas9/sgRNA/NC-12/PEI (AF647-Cas9) (U2OS.EGFP cells)	effect of endocytosis inhibitor on internalization of DOX/FA-NCl/NCa (MCF-7 cells)	resistance of DNA NC to Cas9/sgRNA degradation [1]	also measured
N=C(N)NC(=O)c1nc(Cl)c(N)nc1N [amiloride]	greatest reduction in Cas9 uptake	pronounced effects in inhibiting the internalization		
CN(C)CCCN1c2ccccc2Sc2ccc(Cl)cc21 [chlorpromazine]		pronounced effects in inhibiting the internalization		
methyl-β-cyclodextrin	greatest reduction in Cas9 uptake			
B1			resistant to Cas9/sgRNA degradation	
B2				fraction of EGFP negative cells among DNA NC variants [2]: highest fraction of EGFP negative cells
B3			resistant to Cas9/sgRNA degradation	
